Test results from article PMC11679793, “Structure-Activity Relationship Study of Majusculamide D: Overcoming Metabolic Instability and Severe Toxicity with a Fluoro Analogue” (Marine Drugs, 2024).

How the values were obtained:
[1] = tested on: PANC-1 cells; assay: MTT cell activity assay (inhibitory activity against PANC-1 cells); type: cell-based; details: Homo sapiens, PANC-1, 72 h, read-out: IC50 (nM), inhibitory activity against PANC-1 cells (Table 1), PANC-1 cells, 72 h incubation, mean ± SD, n = 3
Procedure: A total of 3000 PANC-1 cells were resuspended in 200 μL of culture medium and seeded into 96-well plates. After 24 h, the cells were treated with the compound and incubated for an additional 72 h. Following the incubation, 20 μL of 5 mg/mL MTT solution (Solarbio, China) was added to each well in the dark, and the cells were incubated for another 4 h. After incubation, the culture medium was discarded, and the wells were washed with PBS to remove any residual medium. Then, 200 μL of DMSO was added to each well to fully dissolve the formazan crystals, and the solution was mixed thoroughly. The absorbance was measured at 492 nm/570 nm, and the data were analyzed using GraphPad Prism.

[2] = tested on: PANC-1 xenograft tumor; details: for tumor inhibition rate (%): calculated from tumor weight, 1c, gemcitabine 20 mg/kg i.v.
Procedure: Furthermore, a xenografted murine subcutaneous tumor model was employed to evaluate the effects of majusculamide D and the optimized analogues 1c and 1n (Figure 1B). PANC1-bearing BALB/c nude mice were separated randomly, with a total of six mice in each group. Gemcitabine was chosen as the positive drug; the mice were then administered intravenous doses of 1c (5 mg/kg), 1n (5 mg/kg), 1a (5 mg/kg), and gemcitabine (20 mg/kg) every other day for 24 days.
A total of 4 × 10^6 PANC-1 cells suspended in 100 μL PBS were subcutaneously injected into the right shoulder region of BALB/c nude mice. When the tumor volume reached approximately 200 mm^3, the mice were euthanized, and the tumor tissues were harvested and designated as F1 generation. Tumor tissues were then cut into small cubes measuring approximately 3 × 3 × 3 mm, which were implanted into new BALB/c mice to propagate the tumors. This procedure was repeated to obtain the F2 generation of tumors. Finally, mice bearing F3 generation transplant tumors were used for drug treatment experiments. When the tumor volume reached approximately 80–100 mm^3, the mice were randomly divided into five groups (n = 6): control group, 5 mg/kg compound 1a group, 5 mg/kg compound 1c group, 5 mg/kg compound 1n group, and 20 mg/kg gemcitabine group. The compounds 1a, 1c, and 1n were dissolved in DMSO and then diluted with 0.9% physiological saline to achieve a final concentration of 0.5 mg/mL as the dosing concentration. Gemcitabine was dissolved directly in 0.9% saline to achieve a final concentration of 2 mg/mL as the dosing concentration. The compounds were administered intravenously every two days, alternating between the left and right tail veins to minimize vein damage. Injections were performed using ultra-fine syringes (30G needles) to reduce stress and ensure consistent delivery. The body weight and tumor volume of the mice were measured every four days. On day 24, the mice were euthanized, and the tumor weights were recorded. Tumor volume (V) was calculated using the formula: V = (ab^2)/2, with “a” representing the long diameter of the tumor and “b” representing the short diameter of the tumor. […] Tumor weight was used to calculate the tumor inhibition rate (Figure 1G).

[3] = Stability in mouse plasma assay; type: in vitro ADME; details: 1 μM, 37 °C; for stability in mouse plasma compared to 1a (in words): 0-24 h
Procedure: Thaw plasma at room temperature and vortex for 3–5 s. Centrifuge at 3000 rpm at 10 °C for 10 min, and carefully transfer the supernatant to a new Eppendorf tube. Preincubate the plasma at 37 °C for 10 min. Prepare a series of test substances by adding 3 μL of the compound (100 μM) to 297 μL of plasma to achieve a final concentration of 1 μM, ensuring that the DMSO concentration in plasma is 1%. Propantheline bromide is used as a positive control. Incubate the mixture at 37 °C, and at specified time points (0, 1, 2, 4, and 24 h), take 50 μL of the plasma sample. To terminate the reaction, add 250 μL of acetonitrile (containing an internal standard), vortex thoroughly, and centrifuge at 16,000 rcf (4 °C) for 10 min. Collect 130 μL of the supernatant and dilute with 70 μL of pure water for LC-MS/MS analysis. The concentration of the test substances in plasma samples was determined using LC-MS/MS. The stability of the test substance in plasma was evaluated by measuring the remaining percentage of the compound in the plasma over time.

[4] = Serum biochemical analysis and H&E histology of liver and kidney; type: in vivo, mice; details: 5 mg/kg every other day, 14 days
Procedure: In the biochemical and histological assays, 1n (5 mg/kg) and 1a (5 mg/kg) were administered to mice every other day, with the control group receiving an equivalent dose of saline. Following 14 days, mouse serum was collected for biochemical analysis, and organs were fixed for histological examination. […] In comparison, the liver tissues of the 1n-treated and control groups were normal.
Mice were euthanized, and liver and kidney tissues were collected and fixed in 10% neutral-buffered formalin for 48 h. The fixed tissues were processed for paraffin embedding, including dehydration in a graded ethanol series, clearing with xylene, and infiltration with molten paraffin wax. Paraffin blocks were sectioned into 4 μm slices using a rotary microtome, and the sections were mounted onto glass slides. The slides were dried at 60 °C for 4 h to ensure proper tissue adhesion. Following deparaffinization and rehydration, staining was performed according to the manufacturer’s instructions for the H&E staining kit (Solarbio, China). The sections were immersed in a hematoxylin solution for 3 min to stain the nuclei and then rinsed under running tap water for 1 minute to remove excess stain. Differentiation was achieved by briefly immersing the slides in a 1% hydrochloric acid-ethanol solution, followed by neutralization in 0.6% ammonia water until the nuclei appeared blue. Eosin staining was applied for 30 s to stain cytoplasmic and extracellular components, imparting a pink coloration. The slides were rinsed under running tap water for 30 s to remove excess eosin. Finally, the sections were dehydrated through a graded ethanol series, cleared with xylene, and coverslipped with a neutral resin mounting medium to preserve the stained tissues for microscopic examination.

remaining percentage in mouse plasma after 2 h ([3]; 2 h incubation) [%]	SMILES	IC50 [1] [nM]	tumor inhibition rate (%) ([2]; day 24, 1a, 1n 5 mg/kg)	stability in mouse plasma compared to 1a (in words) [3]	kidney tissue H&E histology [4]	liver tissue H&E histology [4]	serum ALT and AST levels compared to the control group ([4]; n = 3)	impact on mouse body weight gain ([2]; 5 mg/kg i.v. every other day, 24 days)	mice dead in treated group ([2]; 5 mg/kg i.v., xenografted mouse model, six mice per group)	tumor weight ([2]; day 24, i.v. every other day, 1a, 1n 5 mg/kg, gemcitabine 20 mg/kg, mean ± SD) [g]	tumor volume ([2]; i.v. every other day for 24 days, 1a, 1n 5 mg/kg, gemcitabine 20 mg/kg, mean ± SD, n = 6) [mm^3]	remaining percentage in mouse plasma after 24 h ([3]; 24 h incubation) [%]
	CCCCC(C)CC(C)C(=O)N(C)C(Cc1ccc(OC)cc1)C(=O)NC(C(=O)N(C)C(C(=O)N1CC(O)CC1C(=O)N1C(=O)C=CC1C)C(C)C)C(C)OC(F)(F)F (stereo not drawn) [Compound 1c]	2.07 ± 0.67	40.4	significantly superior stability compared to 1a								
	CCCCCC[C@@H](C)C(=O)N(C)[C@@H](Cc1ccc(F)cc1)C(=O)N[C@H](C(=O)N(C)[C@H](C(=O)N1C[C@@H](O)C[C@H]1C(=O)N1C(=O)C=C[C@@H]1C)C(C)C)[C@@H](C)OC(F)(F)F [Compound 1n]	3.83	51.5	significantly superior stability compared to 1a	no significant pathological differences	normal	no significant differences	lesser impact on weight gain compared to 1a	no mouse dead	0.542 ± 0.156	553.3 ± 166.8	> 50
0.90	CC(C)[N+](C)(CCOC(=O)C1c2ccccc2Oc2ccccc21)C(C)C [bromopropyl, Propantheline bromide, reference compound]											
